The target in test [1] is T1, SARS-CoV-2 M^pro enzyme (Severe acute respiratory syndrome coronavirus 2, UniProt P0DTD1). Briefly: FRET-based enzyme assay and IC50 determination. It counts as biochemical. The conditions noted are these: 4.6 μM enzyme, HEPES pH 6.5.
The target in test [2] is T1, SARS-CoV-2 M^pro enzyme. Briefly: Inhibition kinetic study (Lineweaver–Burk, FRET assay). Conditions: from slope of Lineweaver–Burk curves vs. inhibitor concentration. It counts as biochemical.

With `O=C(CSc1cnc2ccccc2n1)NC1CCCC1` [CB03], in test [1], the IC50 (in general, the concentration that gives 50% inhibition) was 301 ± 10 µM. Besides, the Ki – broadly, the dissociation constant of the complex between target and ligand, obtained from inhibition or displacement – in test [2] turned out to be 256 µM.

The record behind these values is paper PMC9572942, “The Discovery of Small Allosteric and Active Site Inhibitors of the SARS-CoV-2 Main Protease via Structure-Based Virtual Screening and Biological Evaluation” (Molecules, 2022).
